Columns and labels:
[1] = system: A375 cells; assay: Annexin V/PI flow cytometry; format: cell-based, human; settings: A375, 48 h, 2 × EC50
Protocol: Due to its good cytotoxic properties, compound 11 was subjected to flow cytometric measurements (Annexin V/PI assay).
Thereby, the BL1-A signal corresponds to the FITC signal for annexin V (x-axis) while PI is detected at BL3-A (y-axis). Thus, cells in R1 correspond to necrotic cells, those in R2 to late apoptosis, cells in R3 are viable cells, and cells in R4 have died from apoptosis.
Approximately 600,000 cells (A375) were seeded in cell culture flasks and were allowed to grow for 1 day. After removing of the medium, the substance loaded medium was added, and the flasks were incubated for 48 h. All cells were harvested, centrifuged (1200 rpm, 5 min), and washed twice (PBS (w/w)). Approximately 100,000 cells were washed with annexin V bounding buffer (BD Biosciences®) and treated with a propidium iodide solution (3 μL, 1 mg/mL) and annexin V (5 μL, BD Biosciences®) for 15 min at room temperature in the dark. After adding annexin V bounding buffer (400 μL) the suspension was submitted to a FACS measurement.

[2] = system: HL-60(TB) (Leukemia); assay: NCI-60 screen (SRB, 48 h); format: cell-based; settings: Homo sapiens
[3] = system: LOX IMVI (Melanoma); assay: NCI-60 screen (SRB, 48 h); format: cell-based; settings: Homo sapiens; for GI50: read-out: GI50
[4] = system: OVCAR-4 (Ovarian cancer); assay: NCI-60 screen (SRB, 48 h); format: cell-based; settings: Homo sapiens; for IC (TGI): OVCAR-4, 48 h; for GI50: read-out: GI50
[5] = system: BT-549 (Breast cancer); assay: NCI-60 screen (SRB, 48 h); format: cell-based; settings: Homo sapiens; for GI50: BT-549; for IC (TGI): BT-549, 48 h
[6] = system: OVCAR-3 (Ovarian cancer); settings: OVCAR-3, 1 dose 10 µM
[7] = system: NSC lung cancer subpanel; assay: NCI-60 screen, subpanel; settings: Homo sapiens; for IC (TGI): 48 h, read-out: TGI MG_MID; for GI50: read-out: GI50 MG_MID; for CC50: read-out: LC50 MG_MID
[8] = system: Colon Cancer subpanel; assay: NCI-60 screen, subpanel; settings: Homo sapiens; for IC (TGI): 48 h, read-out: TGI MG_MID; for GI50: read-out: GI50 MG_MID; for CC50: read-out: LC50 MG_MID
[9] = system: HOP-92 (NSC lung cancer); assay: NCI-60 screen (SRB, 48 h); settings: Homo sapiens; for GI50: HOP-92; for IC (TGI): HOP-92, 48 h, read-out: TGI; for CC50: HOP-92, read-out: LC50
[10] = system: NCI-H522 (NSC lung cancer); assay: NCI-60 screen (SRB, 48 h); settings: Homo sapiens; for GI50: NCI-H522; for IC (TGI): NCI-H522, 48 h, read-out: TGI; for CC50: NCI-H522, read-out: LC50
[11] = system: HCT-116 (Colon cancer); assay: NCI-60 screen (SRB, 48 h); settings: Homo sapiens; for GI50: HCT-116; for activity at 10 µM / IC (TGI): HCT-116, 48 h; for activity at 10 µM: read-out: Growth % of the Most Sensitive Cell Lines; for IC (TGI): read-out: TGI
[12] = system: HCT-15 (Colon cancer); assay: NCI-60 screen (SRB, 48 h); settings: Homo sapiens; for GI50: HCT-15; for IC (TGI): HCT-15, 48 h, read-out: TGI
[13] = system: HT29 (Colon cancer); assay: NCI-60 screen (SRB, 48 h); settings: Homo sapiens; for GI50: HT-29; for IC (TGI): HT-29, 48 h, read-out: TGI; for CC50: HT-29, read-out: LC50
[14] = system: KM12 (Colon cancer); assay: NCI-60 screen (SRB, 48 h); settings: Homo sapiens; for GI50: KM12; for IC (TGI): KM12, 48 h, read-out: TGI; for CC50: KM12, read-out: LC50
[15] = system: SF-295 (CNS cancer); assay: NCI-60 screen (SRB, 48 h); settings: Homo sapiens; for GI50: SF-295; for IC (TGI): SF-295, 48 h, read-out: TGI
[16] = system: UACC-257 (Melanoma); assay: NCI-60 screen (SRB, 48 h); settings: Homo sapiens; for GI50: UACC-257; for IC (TGI): UACC-257, 48 h, read-out: TGI; for CC50: UACC-257, read-out: LC50
[17] = system: IGROV1 (Ovarian cancer); assay: NCI-60 screen (SRB, 48 h); settings: for GI50: IGROV-1; for IC (TGI): IGROV-1, 48 h, read-out: TGI
[18] = system: NCI/ADR-RES (Ovarian cancer); assay: NCI-60 screen (SRB, 48 h); settings: Homo sapiens; for IC (TGI): 48 h, read-out: TGI
[19] = system: A498 (Renal cancer); assay: NCI-60 screen (SRB, 48 h); settings: for GI50 / IC (TGI) / CC50: Homo sapiens; for GI50: A498; for IC (TGI): A498, 48 h, read-out: TGI; for CC50: A498, read-out: LC50
[20] = system: RXF 393 (Renal cancer); assay: NCI-60 screen (SRB, 48 h); settings: for GI50: RXF 393; for IC (TGI): RXF 393, 48 h, read-out: TGI
[21] = system: UO-31 (Renal cancer); assay: NCI-60 screen (SRB, 48 h); settings: Homo sapiens; for GI50: UO-31; for IC (TGI): UO-31, 48 h, read-out: TGI
[22] = system: DU-145 (Prostate cancer); assay: NCI-60 screen (SRB, 48 h); settings: Homo sapiens; for GI50: DU-145; for IC (TGI): DU-145, 48 h, read-out: TGI
[23] = system: T-47D (Breast cancer); assay: NCI-60 screen (SRB, 48 h); settings: Homo sapiens, T47D; for IC (TGI): 48 h, read-out: TGI
[24] = system: K-562 (Leukemia); assay: NCI-60 screen (SRB, 48 h); settings: Homo sapiens, K562

`C=C(C)[C@@H]1CC[C@]2(C(=O)N[C@H](CO)Cc3ccccc3)CC[C@]3(C)[C@H](CC[C@@H]4[C@@]5(C)CCCNC(C)(C)[C@@H]5CC[C@]43C)[C@@H]12` [Compound 11] was tested, and the “cells died by apoptosis (R4)” value [1] was 44.3%, the “necrotic cells (R1)” value [1] was 1.1% and the GI50 [2] was 200 nM. The IC (TGI) ([2]; 48 h) was 460 nM, the IC (TGI) ([3]; 48 h) was 2420 nM and the GI50 [3] was 1070 nM. The IC (TGI) [4] was 940 nM, the GI50 ([4]; OVCAR-4) was 240 nM and the GI50 [5] was 1690 nM. For the same compound, the IC (TGI) [5] was 3320 nM, the “Growth % of the Most Sensitive Cell Lines” value (“Growth %” below) [6] was −95.88% and the IC (TGI) [7] was 3150 nM. It also gave a GI50 [7] of 1520 nM, a CC50 [7] of 6410 nM and an IC (TGI) [8] of 2180 nM. For the same compound, the GI50 [8] was 960 nM, the CC50 [8] was 3760 nM and the GI50 [9] was 1420 nM. The IC (TGI) [9] was 3010 nM, the CC50 [9] was 6420 nM and the GI50 [10] was 1750 nM. It also gave an IC (TGI) [10] of 3350 nM, a CC50 [10] of 6400 nM and a GI50 [11] of 310 nM. For the same compound, the activity at 10 µM [11] was -94.8%, the IC (TGI) [11] was 1250 nM and the GI50 [12] was 970 nM. The IC (TGI) [12] was 2320 nM, the GI50 [13] was 240 nM and the IC (TGI) [13] was 540 nM. It also gave a CC50 [13] of 1750 nM, a GI50 [14] of 1470 nM and an IC (TGI) [14] of 2910 nM. It also gave a CC50 [14] of 5780 nM, a GI50 [15] of 1670 nM and an IC (TGI) [15] of 3210 nM. For the same compound, the GI50 [16] was 1780 nM, the IC (TGI) [16] was 3340 nM and the CC50 [16] was 6250 nM. It also gave a GI50 ([17]; Homo sapiens) of 1830 nM, an IC (TGI) ([17]; Homo sapiens) of 3610 nM and a GI50 [18] of 1350 nM. For the same compound, the IC (TGI) [18] was 3010 nM, the “Growth %” value ([19]; A498, 1 dose 10 µM) was −97.92% and the GI50 [19] was 1490 nM. It also gave an IC (TGI) [19] of 2940 nM, a CC50 [19] of 5810 nM and a GI50 ([20]; Homo sapiens) of 1670 nM. It also gave an IC (TGI) ([20]; Homo sapiens) of 3270 nM, a GI50 [21] of 1500 nM and an IC (TGI) [21] of 2960 nM. The GI50 [22] was 1480 nM, the IC (TGI) [22] was 2870 nM and the GI50 [23] was 1800 nM. The IC (TGI) [23] was 4020 nM.

`C=C(C)[C@@H]1CCC=C2CC[C@]3(C)[C@H](CC[C@@H]4[C@@]5(C)CCCNC(C)(C)[C@@H]5CC[C@]43C)[C@H]21` [Compound 8] showed an IC (TGI) ([3]; 48 h) of 3160 nM, an activity at 10 µM ([3]; 48 h, 1 dose 10 µM, read-out: Growth % of the Most Sensitive Cell Lines) of -99.5% and a GI50 [3] of 1670 nM. It also gave an IC (TGI) [4] of 3390 nM, a GI50 ([4]; OVCAR-4) of 1860 nM and a CC50 ([4]; OVCAR-4, read-out: LC50 (the source's name)) of 6170 nM. The GI50 [5] was 1680 nM, the IC (TGI) [5] was 3230 nM and the “Growth %” value [6] was −93.30%. The IC (TGI) [7] was 3300 nM, the GI50 [7] was 1730 nM and the CC50 [7] was 6180 nM. For the same compound, the IC (TGI) [8] was 3020 nM, the GI50 [8] was 1510 nM and the CC50 [8] was 5870 nM. For the same compound, the GI50 [24] was 320 nM, the GI50 [9] was 1370 nM and the IC (TGI) [9] was 2770 nM. It also gave a CC50 [9] of 5610 nM, a GI50 [10] of 1930 nM and an IC (TGI) [10] of 3500 nM. The CC50 [10] was 6350 nM, the GI50 [11] was 1370 nM and the activity at 10 µM [11] was -96.2%. The IC (TGI) [11] was 2820 nM, the GI50 [12] was 1440 nM and the IC (TGI) [12] was 2840 nM. The CC50 ([12]; HCT-15, read-out: LC50) was 5590 nM, the GI50 [13] was 1200 nM and the IC (TGI) [13] was 2580 nM. For the same compound, the CC50 [13] was 5560 nM, the GI50 [14] was 1930 nM and the IC (TGI) [14] was 3600 nM. The CC50 [14] was 6710 nM, the GI50 [15] was 1810 nM and the IC (TGI) [15] was 3260 nM. The CC50 ([15]; SF-295, read-out: LC50) was 5880 nM, the GI50 [16] was 2190 nM and the IC (TGI) [16] was 4290 nM. It also gave a CC50 [16] of 8380 nM, a GI50 ([17]; Homo sapiens) of 1690 nM and an IC (TGI) ([17]; Homo sapiens) of 3280 nM. The CC50 ([17]; Homo sapiens, IGROV-1, read-out: LC50) was 6350 nM, the “Growth %” value ([17]; IGROV1, 1 dose 10 µM) was −94.22% and the GI50 [18] was 1980 nM. For the same compound, the IC (TGI) [18] was 3800 nM, the CC50 ([18]; read-out: LC50) was 7300 nM and the GI50 [19] was 2030 nM. The IC (TGI) [19] was 3790 nM, the CC50 [19] was 7080 nM and the GI50 ([20]; Homo sapiens) was 1740 nM. For the same compound, the IC (TGI) ([20]; Homo sapiens) was 3320 nM, the CC50 ([20]; Homo sapiens, RXF 393, read-out: LC50) was 6330 nM and the “Growth %” value ([20]; RXF 393, 1 dose 10 µM) was −91.86%. The GI50 [21] was 1520 nM, the IC (TGI) [21] was 2890 nM and the CC50 ([21]; UO-31, read-out: LC50) was 5520 nM. It also gave a GI50 [22] of 1770 nM, an IC (TGI) [22] of 3330 nM and a CC50 ([22]; DU-145, read-out: LC50) of 6260 nM. It also gave a GI50 [23] of 1720 nM, an IC (TGI) [23] of 3470 nM and a CC50 ([23]; read-out: LC50) of 7000 nM.
